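Cells were grown in 96-well plates and exposed to each compound for 48 hours at five concentrations; endpoints were interpolated linearly between bracketing concentrations, or set to the highest concentration if not reached. At the TGI there is no net growth.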
How the values were obtained:
Test in all cases: NCI-60 cell line screen, 48 h
[1] = test system: SN12C renal
[2] = test system: COLO 205 colon
[3] = test system: RXF 393 renal
[4] = test system: U251 CNS
[5] = test system: ACHN renal
[6] = test system: HCC-2998 colon
[7] = test system: NCI-H522 lung
[8] = test system: K-562 leukemia
[9] = test system: PC-3 prostate
[10] = test system: UACC-257 melanoma
[11] = test system: SK-OV-3 ovarian
[12] = test system: EKVX NSCLC
[13] = test system: SK-MEL-5 melanoma
[14] = test system: DU-145 prostate
[15] = test system: SNB-75 CNS
[16] = test system: MCF7 breast
[17] = test system: MDA-MB-231 breast
[18] = test system: SF-268 CNS
[19] = test system: MDA-N
[20] = test system: SF-295 CNS
[21] = test system: TK-10 renal
[22] = test system: SW-620 colon
[23] = test system: M14 melanoma
[24] = test system: HT29 colon
[25] = test system: SF-539 CNS
[26] = test system: BT-549 breast
[27] = test system: NCI-H23 lung
[28] = test system: IGROV1 ovarian
[29] = test system: MDA-MB-435
[30] = test system: LOX IMVI melanoma
[31] = test system: NCI-H460 lung
[32] = test system: HS 578T breast
[33] = test system: CCRF-CEM leukemia
[34] = test system: CAKI-1 renal
[35] = test system: HOP-62 NSCLC
[36] = test system: 786-0 renal
[37] = test system: OVCAR-8 ovarian
[38] = test system: HOP-92 NSCLC
[39] = test system: A498 renal
[40] = test system: OVCAR-3 ovarian
[41] = test system: UO-31 renal
[42] = test system: NCI-H226 lung
[43] = test system: A549 NSCLC
[44] = test system: NCI/ADR-RES ovarian
[45] = test system: HCT-15 colon
[46] = test system: UACC-62 melanoma
[47] = test system: HCT-116 colon
[48] = test system: MALME-3M melanoma
[49] = test system: OVCAR-4 ovarian
[50] = test system: SR leukemia
[51] = test system: T-47D breast
[52] = test system: SNB-19 CNS
[53] = test system: OVCAR-5 ovarian
[54] = test system: SK-MEL-2 melanoma
[55] = test system: RPMI-8226 leukemia
[56] = test system: MOLT-4 leukemia
[57] = test system: SK-MEL-28 melanoma
[58] = test system: KM12 colon
[59] = test system: HL-60(TB) leukemia

CCN(CC)c1ccc(C2NC(=O)c3ccccc3N2)cc1 (stereo not given)
TGI [1]: > 100 µM
TGI [2]: 4.51 µM
TGI [3]: > 100 µM
TGI [4]: > 100 µM
TGI [5]: > 100 µM
TGI [6]: 5.79 µM
TGI [7]: > 100 µM
TGI [8]: > 100 µM
TGI [9]: > 100 µM
TGI [10]: > 100 µM
TGI [11]: > 100 µM
TGI [12]: > 100 µM
TGI [13]: > 100 µM
TGI [14]: > 100 µM
TGI [15]: > 20.3 µM
TGI [16]: > 100 µM
TGI [17]: 7.76 µM
TGI [18]: > 100 µM
TGI [19]: 2.55 µM
TGI [20]: > 86.3 µM
TGI [21]: > 100 µM
TGI [22]: > 100 µM
TGI [23]: > 100 µM
TGI [24]: > 20.8 µM
TGI [25]: 8.68 µM
TGI [26]: > 100 µM
TGI [27]: > 100 µM
TGI [28]: > 100 µM
TGI [29]: 3.44 µM
TGI [30]: > 100 µM
TGI [31]: 7.14 µM
TGI [32]: > 30 µM
TGI [33]: 3.38 µM
TGI [34]: > 26.5 µM
TGI [35]: > 100 µM
TGI [36]: > 41.2 µM
TGI [37]: > 100 µM
TGI [38]: 66.5 µM
TGI [39]: > 31.6 µM
TGI [40]: > 100 µM
TGI [41]: > 100 µM
TGI [42]: > 100 µM
TGI [43]: > 100 µM
TGI [44]: > 100 µM
TGI [45]: > 100 µM
TGI [46]: > 100 µM
TGI [47]: > 100 µM
TGI [48]: > 100 µM
TGI [49]: > 100 µM
TGI [50]: > 100 µM
TGI [51]: > 100 µM
TGI [52]: > 100 µM
TGI [53]: > 100 µM
TGI [54]: > 100 µM
TGI [55]: > 100 µM
TGI [56]: > 100 µM
TGI [57]: > 100 µM

O=c1cc(NNc2ccccc2F)[nH]c(=O)[nH]1
TGI [2]: 33.8 µM
TGI [3]: 3.29 µM
TGI [4]: 31.9 µM
TGI [5]: 32.3 µM
TGI [6]: 34.9 µM
TGI [7]: 31.5 µM
TGI [8]: 57.6 µM
TGI [9]: 32.9 µM
TGI [58]: 28.7 µM
TGI [10]: 32 µM
TGI [11]: 60.8 µM
TGI [13]: 49.5 µM
TGI [14]: > 100 µM
TGI [15]: 72.5 µM
TGI [16]: 21.2 µM
TGI [17]: 29.9 µM
TGI [18]: 35.2 µM
TGI [19]: 32.5 µM
TGI [21]: 27.5 µM
TGI [22]: 31.9 µM
TGI [23]: 31.5 µM
TGI [24]: 34.9 µM
TGI [25]: 30.7 µM
TGI [26]: 31.8 µM
TGI [27]: 31.6 µM
TGI [28]: 30.4 µM
TGI [30]: 29.7 µM
TGI [31]: 2.3 µM
TGI [32]: 63.4 µM
TGI [33]: 47.6 µM
TGI [34]: 25.7 µM
TGI [59]: 34.3 µM
TGI [36]: 28.7 µM
TGI [38]: 29.2 µM
TGI [39]: > 100 µM
TGI [40]: 31.6 µM
TGI [41]: 24.6 µM
TGI [42]: 42.8 µM
TGI [43]: > 100 µM
TGI [44]: 31.4 µM
TGI [45]: 29.6 µM
TGI [46]: 30.9 µM
TGI [47]: 30.6 µM
TGI [48]: 33.3 µM
TGI [49]: 31.5 µM
TGI [50]: 7.37 µM
TGI [51]: 18 µM
TGI [52]: > 100 µM
TGI [53]: 38.7 µM
TGI [54]: 30.8 µM
TGI [55]: 46.2 µM
TGI [56]: 54 µM
TGI [57]: 35.1 µM
